The test system of one experiment is RMA-S cells. It is filed as cell-based, mouse.
Experiment [1] has as its system MVA-L1Δc-infected B6 cells. The format is cell-based, mouse.

Here are results for two substances from patent US6911207B1, “Cytotoxic T-cell epitopes of the papillomavirus L1-protein and use thereof in diagnostics and therapy” (MediGene Aktiengesellschaft, priority 1999, dated 2005).

As to “ASNENMETM (Influenza Virus Type A) [AM control peptide]”, in the experiment on RMA-S cells, the “specific lysis of peptide-preincubated RMA-S target cells by spleen cells of L1-immunized mouse 1” value is on record as “did not cause any distinct lysis”.

As to “L1 VLPs: HPV16 L1 virus-like particles (Muller M. et al. 1997)”, in experiment [1], the “specific lysis of MVA-F6-infected (control virus) B6 target cells by spleen cells of the immunized mouse” value is “not the MVA-F6-infected target cells” and the “specific lysis of MVA-L1Δc-infected B6 target cells by spleen cells of the immunized mouse” value is listed as “lysed the MVA-L1Δc-infected target cells”.
